pIC50: −log10 of the molar value. Blank lines part the entries; values can stand above or below the compound they belong to.
What was measured:
[1] = target: T1, Dual specificity mitogen-activated protein kinase kinase 5 (Homo sapiens, UniProt Q13163); assay: Selectivity interaction (NanoBRET assay (HEK293T cells)) EUB0000305b MAP2K5
T1 sequence (Q13163 whole entry): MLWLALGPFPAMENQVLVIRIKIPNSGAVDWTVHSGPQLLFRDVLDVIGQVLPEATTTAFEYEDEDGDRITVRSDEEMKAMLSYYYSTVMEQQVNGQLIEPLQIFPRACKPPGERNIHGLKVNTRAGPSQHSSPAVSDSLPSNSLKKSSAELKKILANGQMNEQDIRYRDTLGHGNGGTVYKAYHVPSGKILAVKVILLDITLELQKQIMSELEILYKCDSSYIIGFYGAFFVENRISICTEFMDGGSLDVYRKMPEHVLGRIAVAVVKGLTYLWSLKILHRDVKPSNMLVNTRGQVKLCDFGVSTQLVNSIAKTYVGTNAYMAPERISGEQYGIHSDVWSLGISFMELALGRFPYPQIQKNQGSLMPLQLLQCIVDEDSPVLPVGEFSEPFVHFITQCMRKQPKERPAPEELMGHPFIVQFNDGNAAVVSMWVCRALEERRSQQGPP

[2] = target: Phosphorylase b kinase regulatory subunit alpha, liver isoform (Homo sapiens) (UniProt P46019); assay: Selectivity interaction (Kinase panel (University of Dundee)) EUB0000169b PHKA2; settings: at 10 µM
Chain of Phosphorylase b kinase regulatory subunit alpha, liver isoform (Homo sapiens) (P46019 whole entry, canonical isoform): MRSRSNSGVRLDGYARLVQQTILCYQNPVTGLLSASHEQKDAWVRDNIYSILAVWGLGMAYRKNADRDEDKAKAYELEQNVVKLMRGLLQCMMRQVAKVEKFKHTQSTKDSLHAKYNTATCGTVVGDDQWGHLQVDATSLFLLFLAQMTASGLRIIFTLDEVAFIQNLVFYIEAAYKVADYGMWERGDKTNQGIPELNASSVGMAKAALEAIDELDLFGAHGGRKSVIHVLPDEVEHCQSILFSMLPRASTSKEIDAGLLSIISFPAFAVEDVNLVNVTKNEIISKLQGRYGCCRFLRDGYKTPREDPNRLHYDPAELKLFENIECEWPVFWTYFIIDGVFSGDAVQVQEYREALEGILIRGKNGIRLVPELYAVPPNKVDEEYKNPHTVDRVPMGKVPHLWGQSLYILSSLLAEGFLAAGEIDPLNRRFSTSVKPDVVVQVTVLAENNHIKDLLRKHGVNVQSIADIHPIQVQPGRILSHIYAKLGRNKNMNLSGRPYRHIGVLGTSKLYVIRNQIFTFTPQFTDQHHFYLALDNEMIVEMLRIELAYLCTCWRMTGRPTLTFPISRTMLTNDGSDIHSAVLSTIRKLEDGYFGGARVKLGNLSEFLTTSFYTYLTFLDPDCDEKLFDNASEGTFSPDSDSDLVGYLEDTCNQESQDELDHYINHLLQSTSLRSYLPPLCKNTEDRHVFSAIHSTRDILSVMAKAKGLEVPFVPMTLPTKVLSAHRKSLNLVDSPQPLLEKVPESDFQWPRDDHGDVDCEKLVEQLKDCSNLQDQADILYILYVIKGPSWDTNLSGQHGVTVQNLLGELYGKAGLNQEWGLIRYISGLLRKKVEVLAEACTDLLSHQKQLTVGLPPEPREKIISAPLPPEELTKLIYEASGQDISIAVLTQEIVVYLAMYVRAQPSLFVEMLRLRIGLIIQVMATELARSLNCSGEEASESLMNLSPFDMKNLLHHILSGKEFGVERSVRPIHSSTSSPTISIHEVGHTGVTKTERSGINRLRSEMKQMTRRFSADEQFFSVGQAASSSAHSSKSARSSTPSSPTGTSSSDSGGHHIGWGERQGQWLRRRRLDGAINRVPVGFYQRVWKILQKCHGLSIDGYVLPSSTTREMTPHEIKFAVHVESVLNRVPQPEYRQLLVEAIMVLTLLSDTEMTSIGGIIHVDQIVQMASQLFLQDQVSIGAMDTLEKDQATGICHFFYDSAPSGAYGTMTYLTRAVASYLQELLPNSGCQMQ

[3] = target: Dual specificity protein kinase CLK1 (Homo sapiens, UniProt P49759); assay: Selectivity interaction (KinomeScan (DiscoverX)) EUB0000702a CLK1; settings: at 1 µM
Chain of Dual specificity protein kinase CLK1 (P49759 whole entry, looked up): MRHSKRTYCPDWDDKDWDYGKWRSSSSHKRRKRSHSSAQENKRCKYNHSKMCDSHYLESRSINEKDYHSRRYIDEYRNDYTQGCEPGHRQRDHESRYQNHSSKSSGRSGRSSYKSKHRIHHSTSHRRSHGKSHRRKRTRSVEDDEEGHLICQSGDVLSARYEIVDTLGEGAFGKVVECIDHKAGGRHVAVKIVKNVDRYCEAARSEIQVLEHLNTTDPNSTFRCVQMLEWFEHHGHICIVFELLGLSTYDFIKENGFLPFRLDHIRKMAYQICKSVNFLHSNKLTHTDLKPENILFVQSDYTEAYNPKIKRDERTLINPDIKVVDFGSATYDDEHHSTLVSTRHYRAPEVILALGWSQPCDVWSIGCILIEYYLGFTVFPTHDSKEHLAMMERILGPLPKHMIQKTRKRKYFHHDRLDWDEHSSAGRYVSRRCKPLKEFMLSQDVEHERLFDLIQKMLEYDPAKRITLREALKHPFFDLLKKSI

[4] = target: eIF-2-alpha kinase GCN2 (Homo sapiens) (UniProt Q9P2K8); assay: Selectivity interaction (KinomeScan (DiscoverX)) EUB0000702a EIF2AK4; settings: at 1 µM
Chain of eIF-2-alpha kinase GCN2 (Homo sapiens) (Q9P2K8 whole entry): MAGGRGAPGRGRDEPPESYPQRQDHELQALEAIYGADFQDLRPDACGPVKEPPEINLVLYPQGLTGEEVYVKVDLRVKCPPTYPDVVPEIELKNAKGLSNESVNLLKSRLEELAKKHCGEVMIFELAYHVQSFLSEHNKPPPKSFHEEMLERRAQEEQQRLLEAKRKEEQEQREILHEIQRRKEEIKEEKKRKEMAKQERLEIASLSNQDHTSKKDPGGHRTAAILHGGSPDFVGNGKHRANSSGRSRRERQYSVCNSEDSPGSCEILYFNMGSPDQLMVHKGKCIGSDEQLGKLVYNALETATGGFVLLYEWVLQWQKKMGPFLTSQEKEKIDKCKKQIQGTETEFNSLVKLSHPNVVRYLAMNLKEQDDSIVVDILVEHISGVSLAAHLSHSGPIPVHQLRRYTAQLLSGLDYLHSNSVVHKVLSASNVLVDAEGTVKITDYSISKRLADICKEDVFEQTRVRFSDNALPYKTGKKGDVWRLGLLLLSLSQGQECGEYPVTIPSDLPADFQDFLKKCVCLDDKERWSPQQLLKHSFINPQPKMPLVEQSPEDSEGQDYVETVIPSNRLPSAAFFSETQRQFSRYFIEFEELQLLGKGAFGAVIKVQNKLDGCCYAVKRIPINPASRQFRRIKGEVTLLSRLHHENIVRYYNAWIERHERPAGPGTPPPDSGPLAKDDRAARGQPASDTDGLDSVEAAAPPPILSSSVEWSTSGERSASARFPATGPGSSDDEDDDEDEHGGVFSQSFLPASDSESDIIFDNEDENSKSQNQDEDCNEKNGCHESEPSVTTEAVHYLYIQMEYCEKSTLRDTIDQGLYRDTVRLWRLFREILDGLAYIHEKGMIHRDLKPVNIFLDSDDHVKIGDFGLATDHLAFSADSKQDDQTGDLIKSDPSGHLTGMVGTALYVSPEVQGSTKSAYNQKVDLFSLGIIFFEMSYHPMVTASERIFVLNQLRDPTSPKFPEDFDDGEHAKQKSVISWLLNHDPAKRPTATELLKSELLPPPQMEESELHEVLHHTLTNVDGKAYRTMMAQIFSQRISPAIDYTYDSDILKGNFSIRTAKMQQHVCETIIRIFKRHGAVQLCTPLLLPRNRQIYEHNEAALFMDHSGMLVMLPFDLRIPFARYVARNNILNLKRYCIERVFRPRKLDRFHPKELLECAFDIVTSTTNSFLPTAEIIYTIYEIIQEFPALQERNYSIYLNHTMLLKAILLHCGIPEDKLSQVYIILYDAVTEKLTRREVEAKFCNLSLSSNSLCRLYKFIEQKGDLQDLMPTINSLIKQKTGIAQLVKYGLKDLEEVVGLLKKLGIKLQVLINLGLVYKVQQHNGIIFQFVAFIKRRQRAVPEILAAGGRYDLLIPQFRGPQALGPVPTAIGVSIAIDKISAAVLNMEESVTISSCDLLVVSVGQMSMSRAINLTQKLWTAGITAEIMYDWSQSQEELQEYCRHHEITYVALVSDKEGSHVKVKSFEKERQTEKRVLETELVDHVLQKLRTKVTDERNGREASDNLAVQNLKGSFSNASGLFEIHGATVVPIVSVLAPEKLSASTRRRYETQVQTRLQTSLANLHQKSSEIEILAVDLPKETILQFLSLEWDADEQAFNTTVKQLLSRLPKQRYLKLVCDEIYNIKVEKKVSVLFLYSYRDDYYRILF

[5] = target: Serine/threonine-protein kinase WNK4 (Homo sapiens) (UniProt Q96J92); assay: Selectivity interaction (KinomeScan (DiscoverX)) EUB0000702a WNK4; settings: at 1 µM
[6] = target: T2, Tyrosine-protein kinase JAK3 (Homo sapiens) (UniProt P52333); assay: Selectivity interaction (KinomeScan (DiscoverX)) EUB0000702a JAK3; settings: at 1 µM
T2 sequence (whole entry): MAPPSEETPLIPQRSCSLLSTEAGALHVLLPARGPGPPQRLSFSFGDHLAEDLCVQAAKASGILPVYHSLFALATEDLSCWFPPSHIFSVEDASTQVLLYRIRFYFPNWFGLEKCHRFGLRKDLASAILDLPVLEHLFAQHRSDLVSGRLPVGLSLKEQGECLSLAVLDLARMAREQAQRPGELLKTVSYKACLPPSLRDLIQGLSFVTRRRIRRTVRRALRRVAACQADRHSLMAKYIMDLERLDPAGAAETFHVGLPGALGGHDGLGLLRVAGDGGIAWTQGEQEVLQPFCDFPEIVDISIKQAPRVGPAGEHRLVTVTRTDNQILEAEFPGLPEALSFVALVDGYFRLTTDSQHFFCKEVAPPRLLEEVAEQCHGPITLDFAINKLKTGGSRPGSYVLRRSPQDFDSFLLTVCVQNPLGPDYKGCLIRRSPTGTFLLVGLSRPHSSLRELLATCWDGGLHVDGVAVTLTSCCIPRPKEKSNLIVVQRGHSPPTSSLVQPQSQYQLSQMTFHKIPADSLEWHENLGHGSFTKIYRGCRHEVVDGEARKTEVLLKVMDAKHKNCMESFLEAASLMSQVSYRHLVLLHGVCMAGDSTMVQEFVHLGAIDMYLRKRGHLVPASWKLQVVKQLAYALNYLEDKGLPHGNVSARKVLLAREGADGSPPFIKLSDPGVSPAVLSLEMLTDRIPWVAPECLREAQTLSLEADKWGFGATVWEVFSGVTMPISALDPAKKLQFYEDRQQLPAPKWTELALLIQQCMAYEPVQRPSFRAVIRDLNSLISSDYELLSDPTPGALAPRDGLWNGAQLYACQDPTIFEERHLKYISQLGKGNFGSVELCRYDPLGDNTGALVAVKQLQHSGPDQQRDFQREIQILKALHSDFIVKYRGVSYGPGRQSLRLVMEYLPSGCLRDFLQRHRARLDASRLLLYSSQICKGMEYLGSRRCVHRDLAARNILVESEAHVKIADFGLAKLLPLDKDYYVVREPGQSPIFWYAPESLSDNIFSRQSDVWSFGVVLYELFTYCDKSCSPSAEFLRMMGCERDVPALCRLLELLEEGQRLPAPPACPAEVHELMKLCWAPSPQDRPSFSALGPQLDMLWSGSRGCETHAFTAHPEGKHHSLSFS

[7] = target: T3, Ephrin type-B receptor 6 (Homo sapiens) (UniProt O15197); settings: at 1 µM
T3 sequence (whole entry): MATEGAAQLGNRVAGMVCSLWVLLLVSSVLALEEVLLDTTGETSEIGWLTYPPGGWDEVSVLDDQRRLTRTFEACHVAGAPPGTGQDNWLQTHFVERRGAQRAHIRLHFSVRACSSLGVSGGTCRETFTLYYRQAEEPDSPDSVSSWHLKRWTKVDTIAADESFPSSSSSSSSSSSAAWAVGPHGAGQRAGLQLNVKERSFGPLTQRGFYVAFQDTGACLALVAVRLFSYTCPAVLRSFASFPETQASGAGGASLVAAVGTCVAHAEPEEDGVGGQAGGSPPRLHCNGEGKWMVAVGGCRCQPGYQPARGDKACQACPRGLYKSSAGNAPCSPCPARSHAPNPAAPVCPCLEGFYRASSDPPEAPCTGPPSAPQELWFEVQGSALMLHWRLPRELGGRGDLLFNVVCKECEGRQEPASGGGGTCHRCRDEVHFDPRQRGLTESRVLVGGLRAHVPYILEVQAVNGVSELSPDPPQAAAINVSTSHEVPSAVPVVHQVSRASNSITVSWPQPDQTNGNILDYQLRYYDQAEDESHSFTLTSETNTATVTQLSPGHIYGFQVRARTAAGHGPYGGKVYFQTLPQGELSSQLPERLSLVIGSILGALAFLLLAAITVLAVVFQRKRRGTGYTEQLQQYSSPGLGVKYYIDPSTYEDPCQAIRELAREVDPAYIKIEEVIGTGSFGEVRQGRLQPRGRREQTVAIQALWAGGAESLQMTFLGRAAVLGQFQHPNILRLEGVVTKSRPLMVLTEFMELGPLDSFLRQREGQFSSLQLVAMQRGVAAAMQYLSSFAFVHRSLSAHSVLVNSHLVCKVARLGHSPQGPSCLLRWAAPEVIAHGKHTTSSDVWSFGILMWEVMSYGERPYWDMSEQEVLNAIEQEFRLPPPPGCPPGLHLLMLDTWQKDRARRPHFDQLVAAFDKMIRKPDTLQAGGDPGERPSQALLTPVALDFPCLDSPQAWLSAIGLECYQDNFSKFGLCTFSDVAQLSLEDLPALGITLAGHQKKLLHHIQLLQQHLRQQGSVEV

[8] = target: Tyrosine-protein kinase FRK (Homo sapiens, UniProt P42685); settings: at 1 µM
Chain of Tyrosine-protein kinase FRK (P42685 whole entry): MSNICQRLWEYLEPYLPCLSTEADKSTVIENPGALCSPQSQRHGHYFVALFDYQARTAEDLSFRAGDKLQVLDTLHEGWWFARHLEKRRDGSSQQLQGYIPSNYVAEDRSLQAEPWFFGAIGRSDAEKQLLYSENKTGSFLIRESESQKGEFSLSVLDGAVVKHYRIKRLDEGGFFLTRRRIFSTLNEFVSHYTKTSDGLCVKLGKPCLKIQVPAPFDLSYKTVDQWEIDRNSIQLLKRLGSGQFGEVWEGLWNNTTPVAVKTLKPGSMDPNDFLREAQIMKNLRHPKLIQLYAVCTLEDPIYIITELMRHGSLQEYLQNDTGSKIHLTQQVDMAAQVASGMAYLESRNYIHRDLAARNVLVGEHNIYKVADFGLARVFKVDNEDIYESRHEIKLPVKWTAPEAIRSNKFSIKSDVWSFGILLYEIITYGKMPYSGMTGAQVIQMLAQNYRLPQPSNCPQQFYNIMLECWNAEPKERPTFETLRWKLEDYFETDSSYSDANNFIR

[9] = target: Tyrosine-protein kinase JAK2 (Homo sapiens, UniProt O60674); assay: Selectivity interaction (KinomeScan (DiscoverX)) EUB0000138c JAK2; settings: at 100 nM
Chain of Tyrosine-protein kinase JAK2 (O60674 whole entry): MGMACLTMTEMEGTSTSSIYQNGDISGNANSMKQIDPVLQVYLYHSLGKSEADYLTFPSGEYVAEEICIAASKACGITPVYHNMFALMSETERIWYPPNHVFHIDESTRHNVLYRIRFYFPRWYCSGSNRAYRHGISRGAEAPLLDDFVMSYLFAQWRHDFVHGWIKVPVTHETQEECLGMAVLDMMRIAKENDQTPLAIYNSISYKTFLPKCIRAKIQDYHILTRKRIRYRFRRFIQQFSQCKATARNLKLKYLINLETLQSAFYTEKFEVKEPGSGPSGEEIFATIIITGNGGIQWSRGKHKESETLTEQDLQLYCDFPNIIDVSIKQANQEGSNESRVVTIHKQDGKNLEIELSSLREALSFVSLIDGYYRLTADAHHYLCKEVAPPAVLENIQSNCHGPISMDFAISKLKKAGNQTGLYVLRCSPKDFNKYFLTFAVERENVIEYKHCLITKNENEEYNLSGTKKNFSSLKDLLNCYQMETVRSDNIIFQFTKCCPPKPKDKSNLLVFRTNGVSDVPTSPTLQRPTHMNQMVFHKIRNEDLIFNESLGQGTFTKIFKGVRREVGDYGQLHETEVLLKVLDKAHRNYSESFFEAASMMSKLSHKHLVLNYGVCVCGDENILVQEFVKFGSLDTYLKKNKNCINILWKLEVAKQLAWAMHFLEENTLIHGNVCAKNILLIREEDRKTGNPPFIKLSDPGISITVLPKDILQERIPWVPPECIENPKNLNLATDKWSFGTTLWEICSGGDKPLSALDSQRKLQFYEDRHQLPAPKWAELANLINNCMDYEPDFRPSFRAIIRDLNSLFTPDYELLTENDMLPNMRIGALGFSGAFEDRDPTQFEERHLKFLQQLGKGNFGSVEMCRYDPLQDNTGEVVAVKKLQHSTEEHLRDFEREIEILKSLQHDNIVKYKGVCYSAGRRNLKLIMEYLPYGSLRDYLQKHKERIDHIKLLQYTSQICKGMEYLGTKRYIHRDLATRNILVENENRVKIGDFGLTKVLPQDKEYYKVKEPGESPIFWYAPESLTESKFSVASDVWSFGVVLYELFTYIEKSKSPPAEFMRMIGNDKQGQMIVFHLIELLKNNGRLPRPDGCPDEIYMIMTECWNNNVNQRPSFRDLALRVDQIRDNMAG

SMILES: C[C@H](c1ccnc(Nc2nc3ccc(-c4cc(N(C)C)ncn4)cc3[nH]2)c1)N1CCN(C(=O)CC(F)(F)F)CC1 [BAY-985]
pIC50 [1]: < 4.70

SMILES: CN(c1ccnc(CNc2nc(Nc3ccc4c(c3)CC(=O)N4)ncc2C(F)(F)F)n1)S(C)(=O)=O [PF-00911705]
% of control [3]: 4.4%
% of control [4]: 6.7%
% of control [5]: 0%
% of control [6]: 1.9%

SMILES: CCOc1cn(-c2ccc(F)cc2C)nc1C(=O)Nc1ccc(Oc2ccnc3cc(OC)c(OC)cc23)c(F)c1
% of control [7]: < 10%
% of control [8]: < 10%

Other lines, results leading:

% of control [2]: 60%
SMILES: CC[C@@H]1C(=O)N(C)c2cnc(Nc3ccc(C(=O)NC4CCN(C)CC4)cc3OC)nc2N1C1CCCC1

% of control [9]: 4.8%
SMILES: CNC(=O)c1ccc(Nc2ncc(C(F)(F)F)c(NCc3nccnc3N(C)S(C)(=O)=O)n2)cc1 [DEFACTINIB]
